Assay results as given in patent US20060134102A1, “Lymphotoxin beta receptor agents in combination with chemotherapeutic agents” (Biogen Idec MA Inc., priority 2002, published 2006).
Where “and” joins values, the source holds several entries; their conditions need not be identical. Equal values may be shown once.

System: WiDr human colorectal adenocarcinoma
Assay: WiDr xenograft model: growth of established WiDr human colorectal tumors in athymic nude mice (tumor volume/weight, % T/C, Fa, Combination Index)
Settings: for Volume Decrease: vs control; for Fractional Inhibition of Tumor Volume (Fa), Ave. / Tumor Volume, Ave.: group average
[1] = Day 34, individual animals, hCBE 50
[2] = Day 34, individual animals, hCBE 500
[3] = hCBE 50 μg, day 28, one line per animal
[4] = hCBE 100 μg, day 28, one line per animal
[5] = huCBE11 50 μg, day 21, listed as hCBE

Description: Therapeutic agents, i.e. LTβR agonist and chemotherapeutic agents, were administered to athymic nude mice who had been implanted with WiDr tumor cells.
WiDr cells were obtained from the American Type Culture Collection (Manassas, Va.). Cells were grown in vitro in 90% Eagle's Minimum Essential Medium with 2 mM L-glutamine and Earle's Balanced Salt Solution (BSS) adjusted to contain 1.5 g/L sodium bicarbonate, 0.1 mM non-essential amino acids, and 1 mM sodium pyruvate plus 10% fetal bovine serum (FBS) without antibiotics (5% CO2). Bacterial cultures were performed on aliquots of the tumor homogenate preparation that was implanted into the mice to ensure that all cultures were negative for bacterial contamination at both 24 and 48 hours post implant.
When the tumors measured approximately 5 mm in length by 5 mm in width, mice were randomized to treatment and control groups. Body weight measurements were recorded twice-weekly beginning on Day 0.
Tumor measurements were determined using Vernier calipers. Tumor size measurements were recorded regularly according to the study, until the termination of the study. The formula to calculate volume for a prolate ellipsoid was used to estimate tumor volume (mm^3) from 2-dimensional tumor measurements: tumor volume (mm^3)=(length×width^2 [L×W^2])÷2. Assuming unit density, volume was converted to weight (i.e., 1 mm^3=1 mg). Tumor growth inhibition was assessed as % T/C, where T is the mean tumor weight of the treatment group and C is the mean tumor weight of the control group. […] Animals were sacrificed accordingly.
Statistical analysis of the tumor weight measurements was performed according to standard statistical methods. Mean, standard deviation (SD), and standard error of the mean (SEM) were determined for body weight and tumor weight for all dose groups at all assessments.
Antitumor efficacy was determined by comparing each treatment group's tumor volume with the control group's tumor volume. Mean tumor volume decrease was calculated as the difference between the control group and the treatment group mean tumor volume. The fractional inhibition of tumor volume, i.e., the fraction affected (Fa), was calculated by dividing the treatment group mean tumor volume decrease by the control group mean tumor volume. […] Further statistical analysis was performed accordingly.

Substance: huCBE11: humanized anti-LT-β-R agonist antibody (LTβ receptor-activating mAb), described in WO 02/30986
- Fa (Fraction Affected) (Day 34, huCBE11 5 ug): 0.256
- Tumor Volume (Day 34, huCBE11 5 ug): 1024.0
- Volume Decrease (Day 34, huCBE11 5 ug): 352.4
- Fa (Fraction Affected) (Day 34, huCBE11 50 ug): 0.361
- Tumor Volume (Day 34, huCBE11 50 ug): 880.1
- Volume Decrease (Day 34, huCBE11 50 ug): 496.3
- Fa (Fraction Affected) (Day 34, huCBE11 500 ug): 0.466
- Tumor Volume (Day 34, huCBE11 500 ug): 735.6
- Volume Decrease (Day 34, huCBE11 500 ug): 640.8
- Median Effect Dose (Day 34, huCBE11 Given Separately): 932.9 µg
- Median Effect Dose (Day 34, huCBE11 dose, Combined (0.333:1) with Taxol): 19.8 µg
- Individual Fractional Inhibition of Tumor Volume [1]: 0.039 and 0.536 and 0.420 and 0.452 and 0.391 and 0.290 and 0.423 and 0.674 and −0.234 and 0.614
- Individual Tumor Volumes [1]: 1322.2 and 638.5 and 798.8 and 754.3 and 838.2 and 976.8 and 794.0 and 448.6 and 1698.4 and 531.6
- Individual Fractional Inhibition of Tumor Volume [2]: 0.174 and 0.360 and 0.502 and 0.529 and 0.688 and 0.717 and 0.395 and 0.607 and 0.230 and 0.454
- Individual Tumor Volumes [2]: 1136.7 and 881.2 and 685.7 and 648.1 and 430.1 and 389.8 and 832.1 and 541.3 and 1059.8 and 751.2
- Tumor weight vs vehicle control (all huCBE11 groups (500, 100, 50 μg), day 42): statistically significantly lower
- Fractional Inhibition of Tumor Volume (Fa), Ave. (hCBE 50 μg, day 28): 0.442
- Tumor Volume, Ave. (hCBE 50 μg, day 28): 448.0
- Individual Fractional Inhibition of Tumor Volume (Fa) [3]: 0.467 and 0.547 and 0.564 and 0.463 and 0.456 and 0.350 and −0.060 and 0.245 and 0.827 and 0.562
- Individual Tumor Volumes [3]: 428.2 and 363.5 and 350.4 and 431.3 and 437.1 and 521.8 and 851.1 and 606.1 and 138.7 and 352.2
- Fractional Inhibition of Tumor Volume (Fa), Ave. (hCBE 100 μg, day 28): 0.519
- Tumor Volume, Ave. (hCBE 100 μg, day 28): 386.1
- Individual Fractional Inhibition of Tumor Volume (Fa) [4]: 0.754 and −0.210 and 0.441 and 0.590 and 0.596 and 0.449 and 0.682 and 0.556 and 0.723 and 0.614
- Individual Tumor Volumes [4]: 197.9 and 972.2 and 449.1 and 329.2 and 324.7 and 442.5 and 255.6 and 356.8 and 222.4 and 310.4
- Fa (Fraction Affected), group mean (huCBE11 5 μg, day 21): 0.265
- Tumor Volume, group mean (huCBE11 5 μg, day 21): 319.0
- Volume Decrease vs control, group mean (huCBE11 5 μg, day 21): 115.0
- Fa (huCBE11 5 μg, day 28): 0.143
- Tumor Volume (huCBE11 5 μg, day 28): 688.4
- Volume Decrease (huCBE11 5 μg, day 28): 114.8
- Inhibition of tumor growth (huCBE11 5 μg, gemcitabine parallel study): did not significantly inhibit tumor growth
- Fraction Affected (huCBE11 50 μg given separately, day 28): 0.442
- % T/C (huCBE11 50 μg, Day 41): 43.5%
- Fa (Fraction Affected), group mean (huCBE11 50 μg, day 21): 0.383
- Tumor Volume, group mean (huCBE11 50 μg, day 21): 267.8
- Volume Decrease vs control, group mean (huCBE11 50 μg, day 21): 166.2
- Fa, individual animals [5]: 0.607 and 0.437 and 0.466 and 0.590 and 0.298 and 0.605 and 0.179 and −0.015 and 0.415 and 0.247
- Tumor volume, individual animals [5]: 170.5 and 244.3 and 231.8 and 178.1 and 304.5 and 171.3 and 356.5 and 440.3 and 254.0 and 326.6
- Tumor Volume (huCBE11 50 μg, day 28): 448.0
- Volume Decrease (huCBE11 50 μg, day 28): 355.2
- Fa (fractional inhibition of tumor volume), group mean (huCBE11 50 μg, day 35): 0.437
- Fa, individual animals (huCBE11 50 μg, day 35): 0.723 and 0.666 and 0.660 and 0.636 and 0.318 and −0.502 and 0.321 and 0.473 and 0.743 and 0.329
- Tumor Volume, group mean (huCBE11 50 μg, day 35): 633.2
- Tumor volume, individual animals (huCBE11 50 μg, day 35): 311.9 and 375.4 and 381.9 and 409.6 and 766.4 and 1688.6 and 762.8 and 592.2 and 289.2 and 754.4
- Volume Decrease vs control, group mean (huCBE11 50 μg, day 35): 490.8
- Fa (fractional inhibition of tumor volume), group mean (huCBE11 50 μg, day 44): 0.387
- Fa, individual animals (huCBE11 50 μg, day 44): 0.656 and 0.434 and 0.559 and 0.498 and 0.143 and 0.591 and −0.316 and 0.381 and 0.406 and 0.516
- Tumor Volume, group mean (huCBE11 50 μg, day 44): 869.7
- Tumor volume, individual animals (huCBE11 50 μg, day 44): 487.5 and 802.7 and 624.9 and 712.0 and 1216.2 and 580.7 and 1866.3 and 878.7 and 842.6 and 686.0
- Volume Decrease vs control, group mean (huCBE11 50 μg, day 44): 548.9
- Fraction Affected (huCBE11 100 μg given separately, day 28): 0.519
- % T/C (huCBE11 100 μg, Day 41): 40.0%
- Tumor Volume (huCBE11 100 μg, day 28): 386.1
- Volume Decrease (huCBE11 100 μg, day 28): 417.1
- Fa (fractional inhibition of tumor volume), group mean (huCBE11 100 μg, day 35): 0.645
- Fa, individual animals (huCBE11 100 μg, day 35): 0.762 and 0.814 and 0.781 and 0.739 and 0.750 and 0.344 and 0.593 and 0.696 and 0.119 and 0.848
- Tumor Volume, group mean (huCBE11 100 μg, day 35): 399.5
- Tumor volume, individual animals (huCBE11 100 μg, day 35): 267.9 and 208.9 and 245.8 and 293.4 and 281.4 and 737.5 and 457.4 and 341.5 and 990.1 and 171.4
- Volume Decrease vs control, group mean (huCBE11 100 μg, day 35): 724.5
- Activity by NCI criteria (% T/C of 42 or less) (huCBE11 100 μg, gemcitabine parallel study): active
- % T/C (huCBE11 500 μg and 50 μg groups, days 35 or 38 to 42): < 42%
- % T/C (huCBE11 500 μg and 100 μg groups, days 32 to 42): < 42%
- Activity by NCI criteria (huCBE11 500 μg, 100 μg, 50 μg, adriamycin parallel study): active
- % T/C (huCBE11 500 μg, Days 31 to 45): below 42%
- Fa (Fraction Affected), group mean (huCBE11 500 μg, day 21): 0.418
- Tumor Volume, group mean (huCBE11 500 μg, day 21): 252.5
- Volume Decrease vs control, group mean (huCBE11 500 μg, day 21): 181.5
- Fa (fractional inhibition of tumor volume), group mean (huCBE11 500 μg, day 35): 0.648
- Fa, individual animals (huCBE11 500 μg, day 35): 1.000 and 0.750 and 0.305 and 0.758 and 0.522 and 0.756 and 0.672 and 0.670 and 0.307 and 0.736
- Tumor Volume, group mean (huCBE11 500 μg, day 35): 396.0
- Tumor volume, individual animals (huCBE11 500 μg, day 35): 0.1 and 280.9 and 781.0 and 272.3 and 537.5 and 273.7 and 368.7 and 370.6 and 778.7 and 296.8
- Volume Decrease vs control, group mean (huCBE11 500 μg, day 35): 728.0
- Fa (fractional inhibition of tumor volume), group mean (huCBE11 500 μg, day 44): 0.567
- Fa, individual animals (huCBE11 500 μg, day 44): 0.930 and 0.334 and 0.624 and 0.765 and 0.669 and 0.538 and 0.285 and 0.489 and 0.488 and 0.545
- Tumor Volume, group mean (huCBE11 500 μg, day 44): 614.7
- Tumor volume, individual animals (huCBE11 500 μg, day 44): 99.1 and 944.8 and 534.1 and 333.2 and 469.4 and 655.8 and 1014.0 and 725.3 and 726.2 and 645.6
- Volume Decrease vs control, group mean (huCBE11 500 μg, day 44): 803.9
- Activity by NCI criteria (% T/C of 42 or less) (huCBE11, Camptosar parallel study): active
- Median Effect Dose (huCBE11 combined with Camptosar (0.555:1), day 21): 10.2 µg
- Median Effect Dose (huCBE11 combined with Gemcitabine (0.568:1), day 28): 7.3 µg
- Median Effect Dose (huCBE11 given separately, day 21): 2933 µg
- Median Effect Dose (huCBE11 given separately, day 28): 81.1 µg
